Source: ChEMBL document CHEMBL2321759, “A new target for an old drug: identifying mitoxantrone as a nanomolar inhibitor of PIM1 kinase via kinome-wide selectivity modeling” (J Med Chem, 2013)
Structures can show the parent of a compound that is named as a salt. Calls of active or inactive are those of the source. No cut-off for these calls is given here.

What was measured:
Casein kinase 2 = Casein kinase 2 (Homo sapiens, UniProt P67870+P68400+P19784+Q8NEV1); experiment: Inhibition of human recombinant casein kinase 2 using [gamma-32P] ATP; assay type: protein assay
[1] = Inhibition of Mycobacterium tuberculosis protein kinase B
[2] = biological target: T1, Tyrosine-protein kinase BTK (Homo sapiens, UniProt Q06187); experiment: Inhibition of BTK (unknown origin)
T1 sequence (Q06187 whole entry): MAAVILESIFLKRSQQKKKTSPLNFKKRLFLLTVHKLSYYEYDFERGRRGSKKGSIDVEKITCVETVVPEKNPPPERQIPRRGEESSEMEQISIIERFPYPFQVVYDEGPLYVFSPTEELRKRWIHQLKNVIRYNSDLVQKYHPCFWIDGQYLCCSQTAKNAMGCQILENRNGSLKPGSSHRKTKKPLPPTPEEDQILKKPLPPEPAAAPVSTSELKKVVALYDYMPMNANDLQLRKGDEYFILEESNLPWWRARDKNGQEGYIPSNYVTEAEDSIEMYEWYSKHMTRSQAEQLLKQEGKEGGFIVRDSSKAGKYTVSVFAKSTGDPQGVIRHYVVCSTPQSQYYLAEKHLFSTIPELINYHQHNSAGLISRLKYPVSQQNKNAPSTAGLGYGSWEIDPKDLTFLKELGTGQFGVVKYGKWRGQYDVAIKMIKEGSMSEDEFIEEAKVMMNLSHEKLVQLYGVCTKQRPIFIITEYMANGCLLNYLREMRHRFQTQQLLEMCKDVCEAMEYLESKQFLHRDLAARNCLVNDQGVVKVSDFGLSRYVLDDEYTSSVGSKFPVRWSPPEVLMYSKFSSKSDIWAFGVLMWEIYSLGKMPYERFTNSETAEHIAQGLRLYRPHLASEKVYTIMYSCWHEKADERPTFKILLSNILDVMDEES

[3] = biological target: T2, Serine/threonine-protein kinase pim-1 (Homo sapiens, UniProt P11309); experiment: Inhibition of PIM1-mediated BAD phosphorylation in human K562 cells after 12 hrs by Western blotting analysis; assay type: cell-based
Target sequence in this assay (P11309 whole entry, looked up): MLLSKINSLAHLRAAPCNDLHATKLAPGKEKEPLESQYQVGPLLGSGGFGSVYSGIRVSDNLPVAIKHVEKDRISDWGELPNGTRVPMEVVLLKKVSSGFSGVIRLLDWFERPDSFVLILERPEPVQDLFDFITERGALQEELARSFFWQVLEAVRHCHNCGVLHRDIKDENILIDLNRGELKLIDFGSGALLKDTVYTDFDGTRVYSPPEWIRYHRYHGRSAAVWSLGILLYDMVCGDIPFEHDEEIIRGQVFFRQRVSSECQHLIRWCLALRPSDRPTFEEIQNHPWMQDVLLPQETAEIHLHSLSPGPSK

[4] = biological target: T2, Serine/threonine-protein kinase pim-1; experiment: Inhibition of PIM1-mediated BAD phosphorylation in human MV411 cells after 12 hrs by Western blotting analysis; assay type: cell-based; conditions: MV4-11
Target sequence in this assay (P11309 whole entry, looked up): as above

[5] = biological target: RAC-alpha serine/threonine-protein kinase (Homo sapiens) (UniProt P31749); experiment: Inhibition of AKT1 (unknown origin) using [gamma33P]ATP assessed as residual activity at 1 uM after 120 mins by radiometric assay
Sequence of RAC-alpha serine/threonine-protein kinase (Homo sapiens) (P31749 whole entry): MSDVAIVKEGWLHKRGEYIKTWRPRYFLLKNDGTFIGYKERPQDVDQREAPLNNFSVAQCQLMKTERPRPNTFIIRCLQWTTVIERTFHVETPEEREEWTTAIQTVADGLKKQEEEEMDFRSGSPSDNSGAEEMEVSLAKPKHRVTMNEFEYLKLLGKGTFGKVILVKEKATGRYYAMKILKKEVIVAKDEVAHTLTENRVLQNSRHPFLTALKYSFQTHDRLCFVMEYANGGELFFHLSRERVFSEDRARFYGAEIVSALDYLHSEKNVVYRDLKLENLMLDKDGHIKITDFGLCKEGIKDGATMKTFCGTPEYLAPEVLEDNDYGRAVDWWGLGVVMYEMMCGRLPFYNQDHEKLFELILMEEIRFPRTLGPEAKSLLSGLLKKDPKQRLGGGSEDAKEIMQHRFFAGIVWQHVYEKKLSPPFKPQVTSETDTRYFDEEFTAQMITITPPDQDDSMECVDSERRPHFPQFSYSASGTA

[6] = biological target: T2, Serine/threonine-protein kinase pim-1; experiment: Inhibition of PIM1 (unknown origin) using [gamma33P]ATP assessed as residual activity at 1 uM after 120 mins by radiometric assayATP
Target sequence in this assay (P11309 whole entry, looked up): as the sequence (P11309 whole entry, looked up) above

[7] = biological target: T1, Tyrosine-protein kinase BTK; experiment: Inhibition of BTK (unknown origin) using [gamma33P]ATP assessed as residual activity at 1 uM after 120 mins by radiometric assay
[8] = biological target: T2, Serine/threonine-protein kinase pim-1; experiment: Inhibition of PIM1-mediated BAD phosphorylation in human K562 cells at 0.1 to 30 uM after 12 hrs by Western blotting analysis; assay type: cell-based
Target sequence in this assay (P11309 whole entry, looked up): as above

[9] = biological target: T2, Serine/threonine-protein kinase pim-1; experiment: Inhibition of PIM1-mediated BAD phosphorylation in human MV411 cells at 100 nM after 12 hrs by Western blotting analysis; assay type: cell-based; conditions: MV4-11
Target sequence in this assay (P11309 whole entry, looked up): as above

MV4-11 [10] = experiment: Effect on total BAD level in human MV411 cells at 10 to 100 nM after 12 hrs by Western blotting analysis; assay type: functional, cell-based
MV4-11 [11] = experiment: Effect on total PIM1 level in human MV411 cells at 10 to 100 nM after 12 hrs by Western blotting analysis; assay type: functional, cell-based
[12] = biological target: Casein kinase II subunit alpha' (Homo sapiens) (UniProt P19784); experiment: Inhibition of CK2alpha2 (unknown origin) using [gamma33P]ATP assessed as residual activity at 1 uM after 120 mins by radiometric assay
Sequence of Casein kinase II subunit alpha' (Homo sapiens) (P19784 whole entry, looked up): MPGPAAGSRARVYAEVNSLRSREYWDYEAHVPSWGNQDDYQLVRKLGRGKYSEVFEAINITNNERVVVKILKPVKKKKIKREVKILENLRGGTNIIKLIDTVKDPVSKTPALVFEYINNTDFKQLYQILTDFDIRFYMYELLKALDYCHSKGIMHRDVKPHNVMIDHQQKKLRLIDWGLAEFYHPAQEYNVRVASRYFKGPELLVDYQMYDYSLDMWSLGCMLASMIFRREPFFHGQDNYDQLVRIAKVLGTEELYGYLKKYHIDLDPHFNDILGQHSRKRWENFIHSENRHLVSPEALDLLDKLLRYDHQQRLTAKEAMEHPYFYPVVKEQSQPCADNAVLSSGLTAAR

[13] = biological target: Serine/threonine-protein kinase Chk2 (Homo sapiens) (UniProt O96017); experiment: Inhibition of CHK2 (unknown origin) using [gamma33P]ATP assessed as residual activity at 1 uM after 120 mins by radiometric assay
Sequence of Serine/threonine-protein kinase Chk2 (Homo sapiens) (O96017 whole entry): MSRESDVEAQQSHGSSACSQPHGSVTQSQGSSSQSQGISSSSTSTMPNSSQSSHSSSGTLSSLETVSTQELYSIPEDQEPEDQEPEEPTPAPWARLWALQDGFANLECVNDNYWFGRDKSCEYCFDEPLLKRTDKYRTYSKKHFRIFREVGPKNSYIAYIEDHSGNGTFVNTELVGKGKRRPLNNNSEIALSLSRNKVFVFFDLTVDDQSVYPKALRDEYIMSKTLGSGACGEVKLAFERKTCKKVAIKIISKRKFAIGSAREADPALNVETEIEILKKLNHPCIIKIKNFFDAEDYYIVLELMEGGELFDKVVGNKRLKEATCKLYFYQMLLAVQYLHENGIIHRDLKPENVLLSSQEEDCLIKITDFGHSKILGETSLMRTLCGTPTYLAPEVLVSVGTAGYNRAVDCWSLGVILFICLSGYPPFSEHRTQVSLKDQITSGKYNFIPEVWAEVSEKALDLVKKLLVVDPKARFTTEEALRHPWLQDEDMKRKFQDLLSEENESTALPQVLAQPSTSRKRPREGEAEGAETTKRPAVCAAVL

[14] = biological target: Platelet-derived growth factor receptor beta (Mus musculus, UniProt P05622); experiment: Inhibition of mouse PDGFRbeta expressed in SF9 insect cells by TR-FRET assay
Sequence of Platelet-derived growth factor receptor beta (P05622 whole entry): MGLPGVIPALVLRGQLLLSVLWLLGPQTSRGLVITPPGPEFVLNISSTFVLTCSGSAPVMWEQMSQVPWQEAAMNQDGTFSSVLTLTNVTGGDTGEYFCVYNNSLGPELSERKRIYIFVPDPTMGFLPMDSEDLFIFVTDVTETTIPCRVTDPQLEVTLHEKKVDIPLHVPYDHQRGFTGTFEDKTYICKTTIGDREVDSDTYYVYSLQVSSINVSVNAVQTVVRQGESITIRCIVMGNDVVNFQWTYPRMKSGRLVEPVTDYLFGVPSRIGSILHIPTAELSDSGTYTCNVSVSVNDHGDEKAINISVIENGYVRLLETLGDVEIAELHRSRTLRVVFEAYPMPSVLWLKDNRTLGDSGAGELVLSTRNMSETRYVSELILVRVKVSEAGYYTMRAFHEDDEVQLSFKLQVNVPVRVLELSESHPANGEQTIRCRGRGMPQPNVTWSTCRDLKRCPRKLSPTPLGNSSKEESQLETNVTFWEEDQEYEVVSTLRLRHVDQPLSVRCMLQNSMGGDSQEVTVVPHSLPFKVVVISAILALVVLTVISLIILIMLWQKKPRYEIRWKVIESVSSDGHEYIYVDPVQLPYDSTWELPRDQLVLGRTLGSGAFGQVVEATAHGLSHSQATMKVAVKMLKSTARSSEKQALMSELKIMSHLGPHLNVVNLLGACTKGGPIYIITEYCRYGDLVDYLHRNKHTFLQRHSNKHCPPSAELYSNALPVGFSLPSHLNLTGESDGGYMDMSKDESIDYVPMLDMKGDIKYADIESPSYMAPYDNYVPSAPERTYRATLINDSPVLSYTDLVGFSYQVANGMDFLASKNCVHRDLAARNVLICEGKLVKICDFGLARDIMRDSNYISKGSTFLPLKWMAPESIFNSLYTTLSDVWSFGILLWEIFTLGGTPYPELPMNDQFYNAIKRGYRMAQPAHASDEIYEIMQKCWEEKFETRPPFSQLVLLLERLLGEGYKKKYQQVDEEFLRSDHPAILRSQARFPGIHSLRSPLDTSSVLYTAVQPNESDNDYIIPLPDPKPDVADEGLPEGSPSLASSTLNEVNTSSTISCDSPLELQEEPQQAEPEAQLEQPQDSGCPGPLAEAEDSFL

[15] = biological target: T2, Serine/threonine-protein kinase pim-1; experiment: Inhibition of recombinant PIM1 (unknown origin) expressed in Escherichia coli BL21(DE3) after 1 hr by HTRF assay
Target sequence in this assay (P11309 whole entry): as the sequence (P11309 whole entry, looked up) above

O=C1c2c(O)ccc(O)c2C(=O)c2c(NCCNCCO)ccc(NCCNCCO)c21 [MITOXANTRONE]
IC50 (Casein kinase 2): 660 nM
IC50 [1]: 800 nM
IC50 [2]: 1000 nM

O=C1c2c(O)ccc(O)c2C(=O)c2c(NCCNCCO)ccc(NCCNCCO)c21
inhibition [3]: Dose-dependent effect
inhibition [4]: Dose-dependent effect
Activity [5]: 109%
Activity [6]: 0.86%
Activity [7]: 45.9%
inhibition [8]: Active
inhibition [9]: Active
Activity (MV4-11 [10]): inactive
Activity (MV4-11 [11]): inactive
Activity [12]: 81.8%
Activity [13]: 59.7%

CNC(=O)c1cc(Oc2ccc(NC(=O)Nc3ccc(Cl)c(C(F)(F)F)c3)cc2)ccn1 [SORAFENIB]
IC50 [14]: < 100 nM

O=C1c2c(O)ccc(O)c2C(=O)c2c(NCCNCCO)ccc(NCCNCCO)c21 [MITOXANTRONE HYDROCHLORIDE]
IC50 [15]: 50.9 nM
